Each structure is given as a SMILES string. Structures can show the parent of a compound that is named as a salt. Where two headings read alike, the source gives them in different places.

Results on 29 compounds are retold here after patent publication US4994476A, “Dihydropyridin-3,5-dicarboxylates incorporating aryloxypropanolamine moieties” (Bristol-Myers Company, priority 1985, dated 1991).

One data set addresses T1, rat dorsal aorta (Rattus norvegicus, UniProt P22002).
T1 construct: from tissue; host or cells: rat dorsal aorta (smooth muscle)
Kind of data set: Calcium blockade in rat dorsal aorta (calcium activity in smooth muscle). It is filed as cell-based. The settings on record: for Calcium (pA2): negative logarithm of molar concentration giving dose ratio of 2; for Kb: negative logarithm of molar concentration giving dose ratio of 2, read-out: Calcium (pA2) (converted). As for the experimental part: (§1) Evaluation of these pharmacological properties was affected by means of both in vitro and in vivo biological screens. In vitro screening included calcium activity in various smooth muscle systems such as rat dorsal aorta, portal vein, and trachea; effects on blood platelets, β-binding affinities which were determined in rat heart and lung. […] The in vivo testing included vasodilating results in the ganglion-blocked, angiotensin-II supported rat and antihypertensive screening in the spontaneous hypertensive rat (SHR) or DOCA salt rats.

The subject of data set [1] is mean arterial blood pressure, ganglion-blocked, angiotensin-II supported rat. The data set can be described thus: Vasodilation in the angiotensin-supported ganglion-blocked rat. Type of data set: in vivo. As to the method: as §1
For another data set, the target named is T2, β-Receptor (Rattus norvegicus, UniProt P18090).
T2 construct: from tissue; host or cells: rat heart
Kind of data set: β-Receptor binding in animal heart tissue. As for the experimental part: as §1

Where [2] appears, read: Rattus norvegicus, 0.5 h, 30 minutes after dosing, read-out: Vasodilation, % reduction in mean arterial blood pressure.
Setting [3] is: animal heart tissue, read-out: β Binding (IC50).

T1 sequence (P22002 whole entry): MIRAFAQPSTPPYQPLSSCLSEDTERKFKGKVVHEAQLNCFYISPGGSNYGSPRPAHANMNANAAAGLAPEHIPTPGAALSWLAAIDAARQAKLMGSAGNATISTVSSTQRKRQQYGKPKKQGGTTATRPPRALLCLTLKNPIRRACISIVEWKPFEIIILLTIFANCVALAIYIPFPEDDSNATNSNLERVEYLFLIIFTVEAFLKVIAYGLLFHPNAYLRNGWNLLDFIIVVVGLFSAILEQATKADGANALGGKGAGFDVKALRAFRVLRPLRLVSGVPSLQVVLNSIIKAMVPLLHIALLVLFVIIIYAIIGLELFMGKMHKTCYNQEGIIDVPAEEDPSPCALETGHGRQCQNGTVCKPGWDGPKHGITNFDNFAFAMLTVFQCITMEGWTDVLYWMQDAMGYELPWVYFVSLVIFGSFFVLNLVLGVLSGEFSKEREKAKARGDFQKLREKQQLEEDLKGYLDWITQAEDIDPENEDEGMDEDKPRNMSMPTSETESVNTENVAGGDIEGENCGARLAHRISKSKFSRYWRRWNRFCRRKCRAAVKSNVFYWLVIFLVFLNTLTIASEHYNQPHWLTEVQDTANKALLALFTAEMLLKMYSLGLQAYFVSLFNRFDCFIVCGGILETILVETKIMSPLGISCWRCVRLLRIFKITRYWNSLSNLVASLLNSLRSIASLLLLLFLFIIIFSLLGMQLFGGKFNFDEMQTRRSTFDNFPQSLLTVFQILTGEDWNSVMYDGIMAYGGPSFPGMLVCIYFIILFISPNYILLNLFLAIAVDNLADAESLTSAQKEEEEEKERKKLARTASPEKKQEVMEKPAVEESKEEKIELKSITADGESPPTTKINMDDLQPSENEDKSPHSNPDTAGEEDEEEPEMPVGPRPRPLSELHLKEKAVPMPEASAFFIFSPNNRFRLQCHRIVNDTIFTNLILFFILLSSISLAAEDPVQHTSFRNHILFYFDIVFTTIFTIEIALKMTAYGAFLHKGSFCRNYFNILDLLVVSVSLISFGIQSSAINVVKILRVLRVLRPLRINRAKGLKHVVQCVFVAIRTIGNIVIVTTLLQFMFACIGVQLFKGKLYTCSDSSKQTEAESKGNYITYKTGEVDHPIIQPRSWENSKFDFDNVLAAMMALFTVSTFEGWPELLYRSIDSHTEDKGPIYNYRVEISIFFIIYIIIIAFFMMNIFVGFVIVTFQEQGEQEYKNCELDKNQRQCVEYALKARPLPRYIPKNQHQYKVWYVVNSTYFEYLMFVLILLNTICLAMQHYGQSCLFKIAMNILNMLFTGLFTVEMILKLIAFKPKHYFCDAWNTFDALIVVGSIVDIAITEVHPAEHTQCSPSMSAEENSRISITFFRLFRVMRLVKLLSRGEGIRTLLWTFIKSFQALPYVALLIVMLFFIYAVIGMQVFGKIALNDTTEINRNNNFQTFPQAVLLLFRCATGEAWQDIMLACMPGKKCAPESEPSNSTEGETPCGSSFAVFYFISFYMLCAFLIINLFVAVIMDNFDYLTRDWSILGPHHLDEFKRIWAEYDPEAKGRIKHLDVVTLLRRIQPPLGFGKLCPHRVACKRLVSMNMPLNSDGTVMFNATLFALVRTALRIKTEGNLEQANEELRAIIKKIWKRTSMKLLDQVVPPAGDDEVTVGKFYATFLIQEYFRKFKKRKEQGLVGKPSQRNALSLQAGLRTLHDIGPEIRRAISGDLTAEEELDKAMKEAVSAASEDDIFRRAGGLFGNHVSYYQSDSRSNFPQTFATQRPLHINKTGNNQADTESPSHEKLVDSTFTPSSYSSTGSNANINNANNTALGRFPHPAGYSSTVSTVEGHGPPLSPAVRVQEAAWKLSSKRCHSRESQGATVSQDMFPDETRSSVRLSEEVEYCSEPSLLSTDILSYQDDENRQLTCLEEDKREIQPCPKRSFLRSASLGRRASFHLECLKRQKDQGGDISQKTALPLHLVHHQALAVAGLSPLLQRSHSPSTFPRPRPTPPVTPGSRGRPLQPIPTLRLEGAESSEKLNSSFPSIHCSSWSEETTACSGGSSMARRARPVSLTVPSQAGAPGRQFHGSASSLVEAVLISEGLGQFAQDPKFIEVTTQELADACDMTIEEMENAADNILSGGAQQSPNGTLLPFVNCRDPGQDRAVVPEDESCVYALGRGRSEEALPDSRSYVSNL
T1 sequence (P54290 25-944 partner limits assumed): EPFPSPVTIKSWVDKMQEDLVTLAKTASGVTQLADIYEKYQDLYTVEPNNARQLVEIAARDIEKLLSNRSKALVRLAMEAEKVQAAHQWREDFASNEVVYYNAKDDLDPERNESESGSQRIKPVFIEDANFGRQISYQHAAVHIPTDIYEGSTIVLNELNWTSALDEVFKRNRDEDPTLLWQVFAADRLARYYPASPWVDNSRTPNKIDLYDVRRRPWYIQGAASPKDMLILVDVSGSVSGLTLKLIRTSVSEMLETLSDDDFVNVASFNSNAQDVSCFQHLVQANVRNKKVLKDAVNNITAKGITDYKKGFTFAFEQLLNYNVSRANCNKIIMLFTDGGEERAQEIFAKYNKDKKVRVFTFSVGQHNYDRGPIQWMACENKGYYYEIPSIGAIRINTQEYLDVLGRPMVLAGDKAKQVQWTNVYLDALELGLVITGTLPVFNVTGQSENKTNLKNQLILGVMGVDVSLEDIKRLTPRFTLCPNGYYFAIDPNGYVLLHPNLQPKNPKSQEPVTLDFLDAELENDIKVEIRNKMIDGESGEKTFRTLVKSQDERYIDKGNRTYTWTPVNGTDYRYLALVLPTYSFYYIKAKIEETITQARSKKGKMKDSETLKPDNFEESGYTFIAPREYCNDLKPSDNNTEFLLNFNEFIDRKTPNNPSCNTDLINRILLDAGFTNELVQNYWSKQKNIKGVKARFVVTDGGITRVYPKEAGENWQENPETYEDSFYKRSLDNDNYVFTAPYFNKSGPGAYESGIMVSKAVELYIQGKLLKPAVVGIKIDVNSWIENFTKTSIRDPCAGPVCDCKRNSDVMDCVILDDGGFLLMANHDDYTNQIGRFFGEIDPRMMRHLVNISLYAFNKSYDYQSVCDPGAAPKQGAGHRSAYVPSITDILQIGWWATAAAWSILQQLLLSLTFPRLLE
T1 sequence (P54290 945-1091 partner limits assumed): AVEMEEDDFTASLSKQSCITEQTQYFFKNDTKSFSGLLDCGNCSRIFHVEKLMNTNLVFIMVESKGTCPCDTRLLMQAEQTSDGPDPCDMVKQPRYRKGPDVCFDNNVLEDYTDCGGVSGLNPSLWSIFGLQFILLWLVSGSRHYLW
T2 sequence (P18090 whole entry): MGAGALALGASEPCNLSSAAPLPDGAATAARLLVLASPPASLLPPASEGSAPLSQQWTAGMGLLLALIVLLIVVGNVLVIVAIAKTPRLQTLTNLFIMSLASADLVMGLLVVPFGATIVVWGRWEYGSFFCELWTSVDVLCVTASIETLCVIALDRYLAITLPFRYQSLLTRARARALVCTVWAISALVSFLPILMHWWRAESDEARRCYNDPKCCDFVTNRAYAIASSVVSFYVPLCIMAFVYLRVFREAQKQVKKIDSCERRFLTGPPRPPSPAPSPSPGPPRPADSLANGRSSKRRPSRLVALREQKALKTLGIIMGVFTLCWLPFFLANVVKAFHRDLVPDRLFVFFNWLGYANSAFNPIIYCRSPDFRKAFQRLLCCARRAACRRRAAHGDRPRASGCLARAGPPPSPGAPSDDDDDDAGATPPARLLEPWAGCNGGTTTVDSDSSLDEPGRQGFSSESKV

For `COC(=O)C1=C(C)NC(C)=C(C(=O)OCCCNCC(O)COc2cccc3c2C[C@H](O)[C@H](O)C3)C1c1cccc([N+](=O)[O-])c1` (relative stereo) [Example 64], the “Calcium (pA2)” value on rat dorsal aorta came out at 7.3.
The term IC50 denotes the concentration that inhibits the measured activity by half. As to `COC(=O)C1=C(C)NC(C)=C(C(=O)OCC(C)(C)NCC(O)COc2ccccc2C#N)C1c1cccc([N+](=O)[O-])c1` (stereo not drawn) [Example 29], the inhibition in vivo at 1 mg/kg in data set [1] (setting [2]) was found to be 52%. Moreover, the Kb at rat dorsal aorta is 6.31 nM. For the same compound, on β-Receptor (setting [3]), the IC50 was found to be 20 nM.
For `CCC1=C(C(=O)OCC(C)(C)NCC(O)COc2ccccc2C#N)C(c2cccc([N+](=O)[O-])c2)C(C(=O)OC)=C(C)N1` (stereo not drawn) [Example 30] the same measures were 50%, 3.98 nM and 200 nM.
For `COC(=O)C1=C(C)NC(C(C)C)=C(C(=O)OCC(C)(C)NCC(O)COc2ccccc2C#N)C1c1cccc([N+](=O)[O-])c1` (stereo not drawn) [Example 31], the inhibition in vivo at 1 mg/kg in data set [1] (setting [2]) stood at 9%. Moreover, the IC50 on β-Receptor (setting [3]) worked out at 800 nM.
For the compound `COC(=O)C1=C(C)NC(c2ccccc2)=C(C(=O)OCC(C)(C)NCC(O)COc2ccccc2C#N)C1c1cccc([N+](=O)[O-])c1` (stereo not drawn) [Example 32], the inhibition in vivo at 10 mg/kg in data set [1] (Rattus norvegicus, 0.5 h, 30 minutes after dosing, at 10 mg/kg, read-out: Vasodilation, % reduction in mean arterial blood pressure) is 22%. Besides, on β-Receptor (setting [3]), the IC50 came out at 300 nM.
Consider `COC(=O)C1=C(C)NC(c2cccs2)=C(C(=O)OCC(C)(C)NCC(O)COc2ccccc2C#N)C1c1cccc([N+](=O)[O-])c1` (stereo not drawn) [Example 33], for which the inhibition in vivo at 1 mg/kg in data set [1] (setting [2]) amounted to 12%. Moreover, at β-Receptor (setting [3]), the IC50 was determined as 70 nM.
Consider `CCC1=C(C(=O)OCCNCC(O)COc2ccccc2C#N)C(c2cccc([N+](=O)[O-])c2)C(C(=O)OC)=C(C)N1` (stereo not drawn) [Example 34], for which, in data set [1] (setting [2]), the inhibition in vivo at 1 mg/kg was determined as 17%. The Kb on rat dorsal aorta is 12.6 nM. Further, the IC50 at β-Receptor (setting [3]) was 6000 nM.
Consider `CCC1=C(C(=O)OCCCNCC(O)COc2ccccc2C#N)C(c2cccc([N+](=O)[O-])c2)C(C(=O)OC)=C(C)N1` (stereo not drawn) [Example 35], for which, in data set [1] (setting [2]), the inhibition in vivo at 1 mg/kg came to 28%. Further, the IC50 at β-Receptor (setting [3]) stood at 200 nM.
As to `CCC1=C(C(=O)OCC(C)(C)NCC(O)COc2ccccc2C)C(c2cccc([N+](=O)[O-])c2)C(C(=O)OC)=C(C)N1` (stereo not drawn) [Example 37], in data set [1] (setting [2]), the inhibition in vivo at 1 mg/kg was determined as 58%.
Turning to `CCC1=C(C(=O)OCC(C)(C)NCC(O)COc2ccccc2Br)C(c2cccc([N+](=O)[O-])c2)C(C(=O)OC)=C(C)N1` (stereo not drawn) [Example 38], the inhibition in vivo at 1 mg/kg in data set [1] (setting [2]) was determined as 55%. Further, the IC50 on β-Receptor (setting [3]) amounted to 180 nM.
Take `CCC1=C(C(=O)OCC(C)(C)NCC(O)COc2ccc(CCOC)cc2)C(c2cccc([N+](=O)[O-])c2)C(C(=O)OC)=C(C)N1` (stereo not drawn) [Example 39]: in data set [1] (setting [2]), the inhibition in vivo at 1 mg/kg worked out at 54%. Also, at rat dorsal aorta, the Kb is 1.58 nM. Also, at β-Receptor (setting [3]), the IC50 amounted to 400 nM.
For `CCOC(=O)C1=C(C)NC(C)=C(C(=O)OCCCNCC(O)COc2ccccc2C)C1c1cccc([N+](=O)[O-])c1` (stereo not drawn) [Example 40], the inhibition in vivo at 1 mg/kg in data set [1] (setting [2]) stood at 36%. Also, the Kb on rat dorsal aorta is 20 nM.
For `COC(=O)C1=C(C)NC(C)=C(C(=O)OCCCNCC(O)COc2cccc(C)c2)C1c1cccc([N+](=O)[O-])c1` (stereo not drawn) [Example 41] the same measures were 28% and 6.31 nM.
For `COC(=O)C1=C(C)NC(C)=C(C(=O)OCCCNCC(O)COc2ccc(F)cc2C)C1c1cccc([N+](=O)[O-])c1` (stereo not drawn) [Example 42] the same measures were 39% and 3.98 nM.
With `CCOC(=O)C1=C(C)NC(C)=C(C(=O)OCCCNCC(O)COc2ccccc2C#N)C1c1cccc([N+](=O)[O-])c1` (stereo not drawn) [Example 43], the Kb on rat dorsal aorta was 6.31 nM.
Consider `COC(=O)C1=C(C)NC(C)=C(C(=O)OCCCNCC(O)COc2ccccc2C)C1c1cccc([N+](=O)[O-])c1` (stereo not drawn) [Example 44, Methyl [3-[[3-(2-Methylphenoxy)-2-hydroxypropyl]-amino]propyl]1,4-Dihydro-2,6-dimethyl-4-(3-nitrophenyl)-3,5-pyridinedicarboxylate Hydrochloride], for which the inhibition in vivo at 1 mg/kg in data set [1] (setting [2]) worked out at 28%. The Kb on rat dorsal aorta was 10 to 15.8 nM. Besides, at β-Receptor (setting [3]), the IC50 was determined as 10 nM.
On to `CCC1=C(C(=O)OCC(C)(C)NCC(O)COc2ccc(CC(N)=O)cc2)C(c2cccc([N+](=O)[O-])c2)C(C(=O)OC)=C(C)N1` (stereo not drawn) [Example 45, [2-[3-[4-(Aminocarbonyl)methyl]phenoxy]-2-hydroxypropyl]amino]-2,2-dimethylethyl]^3 Methyl^5 2-Ethyl-1,4-dihydro-6-methyl-4-(3-nitrophenyl)-3,5-pyridinedicarboxylate Hemihydrate], for which, in data set [1] (setting [2]), the inhibition in vivo at 1 mg/kg was determined as 33%. The Kb on rat dorsal aorta was 6.31 nM. For the same compound, the IC50 at β-Receptor (setting [3]) was found to be 420 nM.
On to `COC(=O)C1=C(C)NC(C)=C(C(=O)OCCNC(=S)NCCNCC(O)COc2ccccc2C)C1c1cccc([N+](=O)[O-])c1` (stereo not drawn) [Example 46], for which, in data set [1] (setting [2]), the inhibition in vivo at 1 mg/kg worked out at 22%. Further, the Kb on rat dorsal aorta is 251 nM.
With `CCOC(=O)C1=C(C)NC(C)=C(C(=O)OCCc2ccc(OCC(O)CNC(C)C)cc2)C1c1cccc([N+](=O)[O-])c1` (stereo not drawn) [Example 54, Ethyl [2-[4-[3-[2-Hydroxy.(1-methylethyl)-amino]propoxy]phenyl]ethyl]1,4-Dihydro-2,6-dimethyl-4-(3-nitrophenyl)-3,5-pyridine dicarboxylate Hydrochloride Hydrate], the inhibition in vivo at 1 mg/kg in data set [1] (setting [2]) is 57%. Also, the Kb at rat dorsal aorta is 12.6 nM. For the same compound, at β-Receptor (setting [3]), the IC50 is 100 nM.
With `CCOC(=O)C1=C(C)NC(C)=C(C(=O)OCCc2ccc(OCC(O)CNC(C)(C)C)cc2)C1c1cccc([N+](=O)[O-])c1` (stereo not drawn) [Example 55, Ethyl [2-[4-[3-[(1,1-dimethylethyl)amino]-2-hydroxypropoxy]phenyl]ethyl]1,4-Dihydro-2,6-dimethyl-4-(3-nitrophenyl)-3,5-pyridinedicarboxylate Hydrochloride Hemihydrate], the “Lethality in vasodilation test” value in data set [1] (1.0 mg/kg) is “Lethal at 1.0 mg/kg”. Also, on rat dorsal aorta, the Kb is 12.6 nM.
`CCOC(=O)C1=C(C)NC(C)=C(C(=O)OCCCC(=O)Nc2ccc(OCC(O)CNC(C)C)cc2)C1c1cccc([N+](=O)[O-])c1` (stereo not drawn) [Example 56, Ethyl [3-[[[4-[2-Hydroxy-3-[(1-methylethyl)amino]-propoxy]phenyl]amino]carbonyl]propyl]1,4-Dihydro-2,6-dimethyl-4-(3-nitrophenyl)-3,5-pyridinedicarboxylateHydrate]: the Kb on rat dorsal aorta was 10 nM. Further, the IC50 at β-Receptor (setting [3]) was determined as 620 nM.
On to `CCC1=C(C(=O)OCC(C)(C)NC(=O)Cc2ccc(OCC(O)CNC(C)C)cc2)C(c2cccc([N+](=O)[O-])c2)C(C(=O)OC)=C(C)N1` (stereo not drawn) [Example 57, [2-[4-[2-Hydroxy-3-[(1-methylethyl)amino]propoxy]-phenyl]methyl]carbonyI]amino]-2,2-dimethylethyl]^3 Methyl^5 2-Ethyl-1,4-dihydro-6-methyl-4-(3-nitrophenyl)-3,5-pyridinedicarboxylate Hemihydrate], for which the inhibition in vivo at 1 mg/kg in data set [1] (setting [2]) is 11%. In addition, the Kb at rat dorsal aorta was 50.1 nM. The IC50 on β-Receptor (setting [3]) is over 1000 nM.
Turning to `COC(=O)C1=C(C)NC(C)=C(C(=O)OCCCNCC(O)COc2cccc3ccccc23)C1c1cccc([N+](=O)[O-])c1` (stereo not drawn) [Example 59], at rat dorsal aorta, the “Calcium (pA2)” value was 7.3.
For the compound `COC(=O)C1=C(C)NC(C)=C(C(=O)OCCCNCC(O)COc2ccccc2C(F)(F)F)C1c1cccc([N+](=O)[O-])c1` (stereo not drawn) [Example 60], the “Calcium (pA2)” value on rat dorsal aorta is reported as 7.2.
The same measure, in the same setting: the figure for `COC(=O)C1=C(C)NC(C)=C(C(=O)OCCCNCC(O)COc2ccccc2C2CCCCC2)C1c1cccc([N+](=O)[O-])c1` (stereo not drawn) [Example 61] is 7.6; for `C=CCc1ccccc1OCC(O)CNCCCOC(=O)C1=C(C)NC(C)=C(C(=O)OC)C1c1cccc([N+](=O)[O-])c1` (stereo not drawn) [Example 62] it is 7.4; for `COC(=O)C1=C(C)NC(C)=C(C(=O)OCCCNCC(O)COc2cccc3c2CCCC3=O)C1c1cccc([N+](=O)[O-])c1` (stereo not drawn) [Example 63] it is 8.8.
Regarding `COC(=O)C1=C(C)NC(C)=C(C(=O)OC)C1c1ccccc1[N+](=O)[O-]` [Nifedipine, reference compound], the inhibition in vivo at 0.1 mg/kg in data set [1] (Rattus norvegicus, 0.5 h, 30 minutes after dosing, at 0.1 mg/kg, read-out: Vasodilation, % reduction in mean arterial blood pressure) was determined as 23%. The compound further yielded an IC50 on β-Receptor of over 1000 nM.
For `CC(=O)Nc1ccc(OCC(O)CNC(C)C)cc1` (stereo not drawn) [Practolol, reference compound], the IC50 at β-Receptor (setting [3]) was found to be 1000 nM.
